Measured values reported in patent publication US9850271B2, “Crystalline solvate forms of a pharmaceutical” (NeurMedix, Inc., priority 2008, dated 2017).

Assay: Brief thermal stress of amorphous solid (physical stability)
Type: physicochemical
Conditions: brief thermal stress at 40° C.

For C#C[C@]1(O)CC[C@H]2[C@@H]3[C@@H](O)C=C4C[C@@H](O)CC[C@]4(C)[C@H]3CC[C@@]21C [amorphous Compound 1, 17α-ethynyl-androst-5-ene-3β,7β,17β-triol], the “solid state form after brief thermal stress” value was “resulted in crystalline material that contains Form I”.
